Experimental data as given in patent US12351855B2, “Bioelectronic circuits, systems and methods for preparing and using them” (priority 2019, dated 2025).
Non-standard residues stand in square brackets, D forms with d.

Assays:
IgG Anti-HIV = type: binding
αVβ3 Integrin = αVβ3 Integrin (Homo sapiens, UniProt P05106+P06756); details: Table 1 adapted from Zhang et al.; not among the SPR-measured affinities; cited from earlier work
IgG Anti-Ebola = type: binding
IgE Anti-DNP = type: binding, mouse
DNA template = assay: Rolling-circle amplification of a DNA template, DNA gel of polymerization product; type: biochemical; details: polymerase bound by two streptavidin molecules; versus native enzyme with exonuclease activity deleted
Experimental: To confirm that the modified polymerase was still active, rolling-circle amplification of a DNA template was carried out with the molecule 35 as bound by two streptavidin molecules.

Chain of αVβ3 Integrin (P06756 31-889 limits assumed): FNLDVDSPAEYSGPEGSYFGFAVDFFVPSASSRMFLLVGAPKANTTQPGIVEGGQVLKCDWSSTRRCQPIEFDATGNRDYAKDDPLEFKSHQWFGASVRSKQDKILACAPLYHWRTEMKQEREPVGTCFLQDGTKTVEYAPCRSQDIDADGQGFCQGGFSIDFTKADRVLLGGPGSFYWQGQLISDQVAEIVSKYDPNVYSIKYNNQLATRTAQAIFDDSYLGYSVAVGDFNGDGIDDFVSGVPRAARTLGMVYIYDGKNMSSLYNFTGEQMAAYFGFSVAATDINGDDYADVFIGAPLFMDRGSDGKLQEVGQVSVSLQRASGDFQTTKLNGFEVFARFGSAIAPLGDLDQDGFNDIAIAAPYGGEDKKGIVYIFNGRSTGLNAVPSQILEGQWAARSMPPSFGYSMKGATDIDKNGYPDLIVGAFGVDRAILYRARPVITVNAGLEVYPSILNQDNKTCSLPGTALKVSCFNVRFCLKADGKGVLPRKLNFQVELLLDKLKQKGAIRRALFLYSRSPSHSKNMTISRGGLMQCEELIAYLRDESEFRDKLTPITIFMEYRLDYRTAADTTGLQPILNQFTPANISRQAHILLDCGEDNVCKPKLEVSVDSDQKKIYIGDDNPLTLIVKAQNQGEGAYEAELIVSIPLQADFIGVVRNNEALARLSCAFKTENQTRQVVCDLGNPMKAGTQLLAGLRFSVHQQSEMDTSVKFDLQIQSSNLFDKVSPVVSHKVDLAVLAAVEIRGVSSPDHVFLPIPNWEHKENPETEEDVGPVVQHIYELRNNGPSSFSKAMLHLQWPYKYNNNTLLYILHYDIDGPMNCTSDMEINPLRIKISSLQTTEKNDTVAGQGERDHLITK
Chain of αVβ3 Integrin (P06756 891-1048 partner limits assumed): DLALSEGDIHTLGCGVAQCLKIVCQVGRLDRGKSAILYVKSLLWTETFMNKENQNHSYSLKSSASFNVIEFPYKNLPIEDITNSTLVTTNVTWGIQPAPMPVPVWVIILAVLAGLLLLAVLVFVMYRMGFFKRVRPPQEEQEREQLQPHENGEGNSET
Chain of αVβ3 Integrin (P05106 27-788): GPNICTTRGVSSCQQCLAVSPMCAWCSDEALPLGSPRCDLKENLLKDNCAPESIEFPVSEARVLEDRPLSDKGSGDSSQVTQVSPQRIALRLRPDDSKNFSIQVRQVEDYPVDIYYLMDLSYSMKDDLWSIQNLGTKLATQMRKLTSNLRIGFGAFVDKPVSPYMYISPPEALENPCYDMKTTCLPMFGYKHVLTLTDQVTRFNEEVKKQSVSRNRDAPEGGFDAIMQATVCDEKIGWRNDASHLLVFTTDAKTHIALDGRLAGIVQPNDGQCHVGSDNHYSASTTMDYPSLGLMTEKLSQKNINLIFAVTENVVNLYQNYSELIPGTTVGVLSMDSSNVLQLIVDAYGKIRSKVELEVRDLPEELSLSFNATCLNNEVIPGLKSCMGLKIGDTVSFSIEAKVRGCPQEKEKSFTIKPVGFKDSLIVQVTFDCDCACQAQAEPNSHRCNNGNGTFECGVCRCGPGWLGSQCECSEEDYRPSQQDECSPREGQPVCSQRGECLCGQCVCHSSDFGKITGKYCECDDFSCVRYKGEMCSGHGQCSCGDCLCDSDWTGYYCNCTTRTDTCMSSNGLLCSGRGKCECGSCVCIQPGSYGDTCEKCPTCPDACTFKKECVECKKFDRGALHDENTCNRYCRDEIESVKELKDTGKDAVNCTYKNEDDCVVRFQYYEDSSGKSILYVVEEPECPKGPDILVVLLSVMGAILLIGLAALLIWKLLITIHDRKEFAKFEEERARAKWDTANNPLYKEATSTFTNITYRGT

Molecule: CALDRWEKIRLR
- Kd (IgG Anti-HIV): 240 nM

Molecule: cyclo(RGD[dF]C) [Cyclic RGDfC]
- Kd (αVβ3 Integrin): ~10 nM

Molecule: CHNTPVYKLDISEATQV
- Kd (IgG Anti-Ebola): 1400 nM

Molecule: HSCH2CH2-dinitrophenol
- Kd (IgE Anti-DNP): 65 nM

B1: bis-biotinylated polymerase: exonuclease-deleted ϕ29 polymerase with biotinylated Avitags inserted between G111/K112 and E279/D280 (protein)
chain: MKHMPRKMYSCAFATTTKVEDCRVWAYGYMNIEDHSEYKIGNSLDEFMAWVLKVQADLYFHNLKFDGAFIINWLERNGFKWSADGLPNTYNTIISRMGQWYMIDICLGYKGGLNDIFEAQKIEWHEKRKIHTVIYDSLKKLPFPVKKIAKDFKLTVLKGDIDYHKERPVGYKITPEEYAYIKNDIQIIAEALLIQFKQGLDRMTAGSDSLKGFKDIITTKKFKKVFPTLSLGLDKEVRYAYRGGFTWLNDRFKEKEIGEGMVFDVNSLYPAQMYSRLLPYGEPIVFEGKYVWDEGLNDIFEAQKIEWHEDYPLHIQHIRCEFELKEGYIPTIQIKRSRFYKGNEYLKSSGGEIADLWLSNVDLELMKEHYDLYNVEYISGLKFKATTGLFKDFIDKWTYIKTTSEGAIKQLAKLMLNSLYGKFASNPDVTGKVPYLKENGALGFRLGEEETKDPVYTPMGVFITAWARYTTITAAQACYDRIIYCDTDSIHLTGTEIPDVIKDIVDPKKLGYWAHESTFKRAKYLRQKTYIQDIYMKEVDGKLVEGSPDDYTDIKFSVKCAGMTDKIKKEVTFENFKVGFSRKMKPKPVQVPGGVVLVDDTFTIK
- polymerase activity (DNA template): comparable to that of the native enzyme
